Measured values from ChEMBL document CHEMBL1153990, “Exploring the PI3K alpha and gamma binding sites with 2,6-disubstituted isonicotinic derivatives” (Bioorg Med Chem Lett, 2009).

Tests used:
[1] = target: Phosphatidylinositol 4,5-bisphosphate 3-kinase catalytic subunit gamma isoform (Homo sapiens, UniProt P48736); assay: Inhibition of PI3Kgamma by luminescent kinase glo assay
[2] = target: Phosphatidylinositol 4,5-bisphosphate 3-kinase catalytic subunit alpha isoform (Homo sapiens, UniProt P42336); assay: Inhibition of PI3Kalpha by luminescent kinase glo assay; conditions: for inhibition: concentration not given here
Chain of Phosphatidylinositol 4,5-bisphosphate 3-kinase catalytic subunit alpha isoform (P42336 whole entry, canonical isoform): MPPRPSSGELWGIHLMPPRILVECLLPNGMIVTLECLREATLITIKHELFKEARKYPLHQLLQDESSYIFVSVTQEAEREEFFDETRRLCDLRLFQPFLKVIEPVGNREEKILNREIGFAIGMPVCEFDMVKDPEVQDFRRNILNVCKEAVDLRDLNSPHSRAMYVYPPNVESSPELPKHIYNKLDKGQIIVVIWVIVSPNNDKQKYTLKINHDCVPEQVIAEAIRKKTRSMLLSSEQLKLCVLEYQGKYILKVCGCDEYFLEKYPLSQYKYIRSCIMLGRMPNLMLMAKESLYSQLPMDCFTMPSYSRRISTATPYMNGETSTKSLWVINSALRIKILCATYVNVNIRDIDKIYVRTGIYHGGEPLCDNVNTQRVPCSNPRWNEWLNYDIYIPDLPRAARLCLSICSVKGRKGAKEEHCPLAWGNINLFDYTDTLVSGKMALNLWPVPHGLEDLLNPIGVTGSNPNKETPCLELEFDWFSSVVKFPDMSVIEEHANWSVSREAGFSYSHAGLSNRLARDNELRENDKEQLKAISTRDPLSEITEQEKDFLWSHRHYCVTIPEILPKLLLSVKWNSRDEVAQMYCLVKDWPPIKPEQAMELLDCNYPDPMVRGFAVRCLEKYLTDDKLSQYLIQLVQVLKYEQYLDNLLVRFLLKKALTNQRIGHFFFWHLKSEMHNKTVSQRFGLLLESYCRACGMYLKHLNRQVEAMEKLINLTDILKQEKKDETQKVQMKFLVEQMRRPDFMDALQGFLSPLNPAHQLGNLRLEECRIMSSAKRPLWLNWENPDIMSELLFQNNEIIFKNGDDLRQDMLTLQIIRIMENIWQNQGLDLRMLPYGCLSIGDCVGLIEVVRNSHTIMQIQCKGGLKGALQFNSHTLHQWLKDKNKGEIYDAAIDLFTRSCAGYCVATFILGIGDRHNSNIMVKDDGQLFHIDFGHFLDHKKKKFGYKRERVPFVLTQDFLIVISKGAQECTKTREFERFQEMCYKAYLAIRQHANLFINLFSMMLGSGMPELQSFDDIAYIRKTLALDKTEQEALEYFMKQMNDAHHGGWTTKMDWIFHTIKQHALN

[3] = Selectivity ratio of IC50 for PI3Kgamma to IC50 for PI3Kalpha

Chain of Phosphatidylinositol 4,5-bisphosphate 3-kinase catalytic subunit gamma isoform (P48736 whole entry, canonical isoform): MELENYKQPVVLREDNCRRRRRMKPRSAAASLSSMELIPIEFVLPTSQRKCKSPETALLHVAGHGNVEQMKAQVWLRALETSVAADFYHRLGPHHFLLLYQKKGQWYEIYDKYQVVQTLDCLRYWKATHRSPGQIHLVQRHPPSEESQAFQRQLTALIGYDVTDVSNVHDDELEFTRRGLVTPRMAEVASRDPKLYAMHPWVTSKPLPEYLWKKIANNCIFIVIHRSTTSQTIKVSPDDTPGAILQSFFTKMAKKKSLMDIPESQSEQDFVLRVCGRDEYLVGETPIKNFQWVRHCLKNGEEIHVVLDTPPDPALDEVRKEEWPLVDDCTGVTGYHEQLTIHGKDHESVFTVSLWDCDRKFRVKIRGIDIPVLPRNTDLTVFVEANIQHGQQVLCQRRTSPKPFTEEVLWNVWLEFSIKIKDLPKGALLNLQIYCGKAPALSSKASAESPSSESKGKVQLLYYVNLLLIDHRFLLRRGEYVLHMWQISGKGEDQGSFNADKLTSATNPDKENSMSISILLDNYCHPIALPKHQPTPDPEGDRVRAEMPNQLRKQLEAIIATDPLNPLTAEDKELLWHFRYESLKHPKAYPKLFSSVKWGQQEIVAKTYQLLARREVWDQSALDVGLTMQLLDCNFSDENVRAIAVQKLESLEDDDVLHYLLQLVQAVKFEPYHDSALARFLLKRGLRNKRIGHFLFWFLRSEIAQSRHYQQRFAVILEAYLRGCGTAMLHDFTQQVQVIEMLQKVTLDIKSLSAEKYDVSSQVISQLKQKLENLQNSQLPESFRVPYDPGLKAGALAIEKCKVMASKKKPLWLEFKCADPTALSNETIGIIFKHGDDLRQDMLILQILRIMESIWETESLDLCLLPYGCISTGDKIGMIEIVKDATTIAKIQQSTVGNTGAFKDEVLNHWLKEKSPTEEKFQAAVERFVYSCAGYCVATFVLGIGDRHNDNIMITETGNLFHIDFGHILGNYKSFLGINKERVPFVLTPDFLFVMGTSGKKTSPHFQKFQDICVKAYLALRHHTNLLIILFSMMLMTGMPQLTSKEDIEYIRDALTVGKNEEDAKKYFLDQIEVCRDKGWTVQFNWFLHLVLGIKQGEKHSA

## Cc1cc(F)ccc1NCc1cc(C(=O)NCCO)cc(NCCO)n1
[1]
  IC50: > 100 µM
[2]
  IC50: > 100 µM

## Cc1cc(F)ccc1NCc1cc(C(=O)O)cc(N(CCO)CCO)n1
[1]
  IC50: > 100 µM
[2]
  IC50: > 100 µM

## Cc1cc(F)ccc1OCc1cc(C(=O)NCCO)cc(N2CCOCC2)n1
[1]
  IC50: ≥ 50 µM
[2]
  IC50: ≥ 50 µM

## Cc1cc(F)ccc1NCc1cc(C(=O)O)cc(Cl)n1
[1]
  IC50: > 100 µM
[2]
  IC50: > 100 µM

## Cc1cc(F)ccc1NCc1cc(C(=O)N2CCC(O)C2)cc(N2CCC(O)C2)n1 (stereo not drawn)
[1]
  IC50: > 100 µM
[2]
  IC50: > 100 µM

## O=C(O)c1ccnc(N2CCOCC2)c1
[1]
  IC50: > 100 µM
[2]
  IC50: 36 µM

## Cc1cc(F)ccc1NCc1cc(C(=O)O)cc(N2CCCCC2)n1
[1]
  IC50: > 100 µM
[2]
  inhibition: < 10%

## Cc1cc(F)ccc1NCc1cc(C(=O)O)cc(-c2cccc(O)c2)n1
[1]
  IC50: 42 µM
[2]
  IC50: 100 µM

## CCOC(=O)c1cc(COc2ccc(F)cc2C)nc(N2CCOCC2)c1
[1]
  IC50: < 10 µM
[2]
  inhibition: < 10%

## Cc1cc(F)ccc1NCc1cc(C(=O)O)cc(NCCO)n1
[1]
  IC50: > 100 µM
[2]
  IC50: 100 µM

## Cc1cc(F)ccc1NCc1cc(C(=O)O)cc(N(C)CCO)n1
[1]
  IC50: > 100 µM
[2]
  IC50: > 100 µM

## CCOC(=O)c1ccnc(N2CCOCC2)c1
[1]
  IC50: > 100 µM
[2]
  IC50: 51 µM

## Cc1cc(F)ccc1OCc1cc(C(=O)NO)cc(N2CCOCC2)n1
[1]
  IC50: 10 µM
[2]
  IC50: ≥ 10 µM

## Cc1cc(F)ccc1NCc1cc(C(=O)O)cc(N2CCNCC2)n1
[1]
  IC50: > 100 µM
[2]
  IC50: > 100 µM

## Cc1cc(F)ccc1OCc1cc(C(=O)O)cc(N2CCOCC2)n1
[3]
  Ratio IC50: 6
[1]
  IC50: 23 µM
[2]
  IC50: 7 µM

## Cc1cc(F)ccc1NCc1cc(CO)cc(N2CCOCC2)n1
[1]
  IC50: ≥ 100 µM
[2]
  IC50: 20 µM

## Cc1cc(F)ccc1OCc1cc(C(N)=O)cc(N2CCOCC2)n1
[1]
  IC50: < 10 µM
[2]
  IC50: > 10 µM

## Cc1cc(F)ccc1NCc1cc(C(=O)O)cc(N2CCOCC2)n1
[1]
  IC50: 34 µM
[2]
  IC50: 5 µM

## Cc1cc(F)ccc1NCc1cc(C(=O)O)cc(N2CCCC2)n1
[1]
  IC50: > 100 µM
[2]
  inhibition: < 10%

## CCOC(=O)c1cc(CNc2ccc(F)cc2C)nc(N2CCOCC2)c1
[1]
  IC50: < 10 µM
[2]
  inhibition: < 10%

## Cc1cc(F)ccc1NCc1cc(C(=O)O)cc(-c2cccnc2)n1
[1]
  IC50: > 100 µM
[2]
  IC50: > 100 µM

## Cc1cc(F)ccc1NCc1cc(C(=O)O)cc(-c2ccc(O)cc2)n1
[1]
  IC50: 100 µM
[2]
  IC50: 100 µM

## Cc1cc(F)ccc1NCc1cc(C(=O)O)cc(-c2ccncc2)n1
[1]
  IC50: 42 µM
[2]
  IC50: 29 µM

## Cc1cc(F)ccc1NCc1cc(C(=O)O)cc(-c2ccccc2O)n1
[1]
  IC50: > 100 µM
[2]
  IC50: > 100 µM

## Cc1cc(F)ccc1NCc1cc(C=O)cc(N2CCOCC2)n1
[1]
  IC50: 100 µM
[2]
  IC50: 100 µM

## Cc1cc(F)ccc1NCc1cc(C(=O)O)cc(N2CCC(O)C2)n1 (stereo not drawn)
[1]
  IC50: > 100 µM
[2]
  IC50: > 100 µM
